# Assay: Yellowness index (ASTM D1925) of polypropylene plaques after multiple pass extrusion, biocide as neat powder or polyester concentrate (Example 2)
# Type: physicochemical
# Conditions: polypropylene plaque
# Excerpt: Polypropylene homopolymer (PRO-FAX® 6501, Montell Polyolefins, 100 parts), stabilized with 0.05 parts of neopentanetetrayl tetrakis(3,5-di-tert-butyl-4-hydroxyhydrocinnamate), 0.10 parts of tris(2,4-di-tert-butylohenyl) phosphite and 0.05 parts of calcium stearate is dry blended without a biocide; or with 0.25 parts or with 0.50 parts of 2,4,4′-trichloro-2′-hydroxydiphenyl ether (IRGASAN® or IRGAGUARD®, Ciba Specialty Chemicals Corp.) either as a neat powder or as a concentrate as prepared in Example 1. The parts of components are by weight.
# The extruded pellets are compression molded into 125 mil plaques (2″×2″, 5.08 cm×5.08 cm) at 450° F. (232° C.) for nine minutes (three minutes at low pressure; three minutes at high pressure; three minutes cooling). Yellowness index (YI) values are determined on the plaques according to ASTM D1925 on a DCI SF600 spectrophotometer. An increase in yellowness corresponds to a positive increase in the YI value.
smiles,measurement,setting,value
"Oc1cc(Cl)ccc1Oc1ccc(Cl)cc1Cl [Powder, 2,4,4′-trichloro-2′-hydroxydiphenyl ether]",Yellowness Index (YI) after multiple pass extrusion at 500° F. (260° C.) First,biocide 0.25% by wt,8.4
same,Yellowness Index (YI) after multiple pass extrusion at 550° F. (288° C.) First,biocide 0.25% by wt,6.4
same,Yellowness Index (YI) after multiple pass extrusion at 500° F. (260° C.) Second,biocide 0.25% by wt,8.8
same,Yellowness Index (YI) after multiple pass extrusion at 550° F. (288° C.) Second,biocide 0.25% by wt,6.3
same,Yellowness Index (YI) after multiple pass extrusion at 500° F. (260° C.) Third,biocide 0.25% by wt,9.7
same,Yellowness Index (YI) after multiple pass extrusion at 550° F. (288° C.) Third,biocide 0.25% by wt,6.6
same,Yellowness Index (YI) after multiple pass extrusion at 500° F. (260° C.) First,biocide 0.50% by wt,8.8
same,Yellowness Index (YI) after multiple pass extrusion at 550° F. (288° C.) First,biocide 0.50% by wt,7.1
same,Yellowness Index (YI) after multiple pass extrusion at 500° F. (260° C.) Second,biocide 0.50% by wt,9.7
same,Yellowness Index (YI) after multiple pass extrusion at 550° F. (288° C.) Second,biocide 0.50% by wt,7.2
same,Yellowness Index (YI) after multiple pass extrusion at 500° F. (260° C.) Third,biocide 0.50% by wt,9.2
same,Yellowness Index (YI) after multiple pass extrusion at 550° F. (288° C.) Third,biocide 0.50% by wt,7.4
